One may read the IC50 as the concentration at which inhibition is half-maximal. Read a low IC50 as inhibition by little substance.

Among the data in ChEMBL document CHEMBL1150859, “Gelliusterols A--D, new acetylenic sterols from a sponge, Gellius species” (J Nat Prod, 2001) are IC50 values, retold here.

In brackets after ≈: the same amount, converted by molar mass.

Common to all, as to type: functional, cell-based
The subject of one experiment is HT-29. In words: Cytotoxicity against human HT-29 cells.
Another experiment has as its system DU-145. As to the kind of experiment: Cytotoxicity against human DU145 cells.
Another experiment concerns A549. In words: Cytotoxicity against human A549 cells.
The next experiment concerns P388. As to the kind of experiment: Cytotoxicity against mouse P388 cells.
For a further experiment, the system named is SK-MEL-28. As to the kind of experiment: Cytotoxicity against human SK-MEL-28 cells.

Regarding `CC#CC[C@@H](C)[C@H]1CC[C@H]2[C@@H]3[C@H](O)C=C4C[C@@H](O)CC[C@]4(C)[C@H]3CC[C@]12C` [GELLIUSTEROL A], the IC50 with HT-29, in the experiment on DU-145, with A549, in the experiment with P388 and with SK-MEL-28 was greater than 1 µg/mL in each case.
Regarding `CC#CC[C@@H](C)[C@H]1CC[C@H]2[C@@H]3C(=O)C=C4C[C@@H](O)CC[C@]4(C)[C@H]3CC[C@]12C` [GELLIUSTEROL B], the IC50 in the experiment on HT-29, in the experiment on DU-145, in the experiment with A549, in the experiment with P388 and in the experiment on SK-MEL-28 was greater than 1 µg/mL throughout.
Take `CC(C)C#CC[C@@H](C)[C@H]1CC[C@H]2[C@@H]3C(=O)C=C4C[C@@H](O)CC[C@]4(C)[C@H]3CC[C@]12C` [GELLIUSTEROL C]: the IC50 in the experiment on HT-29 was 0.5 µg/mL (≈ 1.26 µM); in the experiment on DU-145, greater than 1 µg/mL; in the experiment with A549, greater than 1 µg/mL; in the experiment with P388, greater than 1 µg/mL; in the experiment with SK-MEL-28, greater than 1 µg/mL.
